Measurements as given in ChEMBL document CHEMBL5465560, “Selectivity Literature for EUbOPEN Chemogenomic Library” (2024).

Tests used:
[1] = biological target: Mitogen-activated protein kinase 4 (Homo sapiens) (UniProt P31152); conditions: at 10 µM
[2] = biological target: T1, Protein kinase C zeta type (Homo sapiens) (UniProt Q05513); assay: Selectivity interaction (ActivX KiNativ screen (kinase selectivity in THP-1 cell lysates)) EUB0000639a PRKCZ; type: subcellular; conditions: lysate
T1 sequence (whole entry): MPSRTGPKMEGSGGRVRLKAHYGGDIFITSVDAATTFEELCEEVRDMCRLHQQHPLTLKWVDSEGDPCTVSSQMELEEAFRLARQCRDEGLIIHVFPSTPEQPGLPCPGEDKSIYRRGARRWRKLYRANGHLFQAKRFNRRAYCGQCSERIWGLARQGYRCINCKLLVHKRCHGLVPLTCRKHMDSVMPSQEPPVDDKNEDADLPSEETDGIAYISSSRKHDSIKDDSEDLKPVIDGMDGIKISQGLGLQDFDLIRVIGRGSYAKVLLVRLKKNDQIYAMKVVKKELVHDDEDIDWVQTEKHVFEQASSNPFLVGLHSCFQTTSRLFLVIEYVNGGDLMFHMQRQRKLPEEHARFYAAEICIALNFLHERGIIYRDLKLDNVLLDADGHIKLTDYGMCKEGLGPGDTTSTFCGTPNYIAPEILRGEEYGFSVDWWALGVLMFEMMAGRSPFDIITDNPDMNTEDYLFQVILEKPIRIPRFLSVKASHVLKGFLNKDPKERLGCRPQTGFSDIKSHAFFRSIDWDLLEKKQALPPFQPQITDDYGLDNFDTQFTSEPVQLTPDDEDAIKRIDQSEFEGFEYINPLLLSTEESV

[3] = biological target: Cyclin-dependent kinase inhibitor 2A (Homo sapiens, UniProt P42771); assay: Selectivity interaction (Kinase panel (33PanQinase(R) Activity Assay)) EUB0000877a CDKN2A
Chain of Cyclin-dependent kinase inhibitor 2A (P42771 whole entry): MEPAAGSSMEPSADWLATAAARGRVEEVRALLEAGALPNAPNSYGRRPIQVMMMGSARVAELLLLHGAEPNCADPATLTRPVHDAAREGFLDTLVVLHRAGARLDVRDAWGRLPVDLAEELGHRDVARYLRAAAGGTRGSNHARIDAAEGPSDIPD

[4] = biological target: Bone morphogenetic protein receptor type-1A (Homo sapiens, UniProt P36894); assay: Selectivity interaction (LanthaScreen Eu Kinase Binding Assay) EUB0001632a BMPR1A; conditions: at 10 µM
Chain of Bone morphogenetic protein receptor type-1A (P36894 whole entry): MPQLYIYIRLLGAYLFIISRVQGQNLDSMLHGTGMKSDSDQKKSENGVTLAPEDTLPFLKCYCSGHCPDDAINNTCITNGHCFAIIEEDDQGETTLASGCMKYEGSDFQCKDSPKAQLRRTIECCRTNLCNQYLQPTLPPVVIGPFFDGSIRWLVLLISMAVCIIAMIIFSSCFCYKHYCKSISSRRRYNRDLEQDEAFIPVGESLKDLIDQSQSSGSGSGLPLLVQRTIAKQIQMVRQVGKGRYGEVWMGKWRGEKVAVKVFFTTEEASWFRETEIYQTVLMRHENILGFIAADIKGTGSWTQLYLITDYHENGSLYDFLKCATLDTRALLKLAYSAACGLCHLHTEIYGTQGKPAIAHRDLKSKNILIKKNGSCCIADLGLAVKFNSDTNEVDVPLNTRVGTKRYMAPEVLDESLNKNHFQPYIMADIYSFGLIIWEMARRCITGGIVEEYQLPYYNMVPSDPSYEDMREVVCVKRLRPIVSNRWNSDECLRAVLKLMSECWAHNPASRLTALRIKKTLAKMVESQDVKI

[5] = biological target: T2, Tyrosine-protein kinase receptor TYRO3 (Homo sapiens) (UniProt Q06418); conditions: at 10 µM
T2 sequence (whole entry): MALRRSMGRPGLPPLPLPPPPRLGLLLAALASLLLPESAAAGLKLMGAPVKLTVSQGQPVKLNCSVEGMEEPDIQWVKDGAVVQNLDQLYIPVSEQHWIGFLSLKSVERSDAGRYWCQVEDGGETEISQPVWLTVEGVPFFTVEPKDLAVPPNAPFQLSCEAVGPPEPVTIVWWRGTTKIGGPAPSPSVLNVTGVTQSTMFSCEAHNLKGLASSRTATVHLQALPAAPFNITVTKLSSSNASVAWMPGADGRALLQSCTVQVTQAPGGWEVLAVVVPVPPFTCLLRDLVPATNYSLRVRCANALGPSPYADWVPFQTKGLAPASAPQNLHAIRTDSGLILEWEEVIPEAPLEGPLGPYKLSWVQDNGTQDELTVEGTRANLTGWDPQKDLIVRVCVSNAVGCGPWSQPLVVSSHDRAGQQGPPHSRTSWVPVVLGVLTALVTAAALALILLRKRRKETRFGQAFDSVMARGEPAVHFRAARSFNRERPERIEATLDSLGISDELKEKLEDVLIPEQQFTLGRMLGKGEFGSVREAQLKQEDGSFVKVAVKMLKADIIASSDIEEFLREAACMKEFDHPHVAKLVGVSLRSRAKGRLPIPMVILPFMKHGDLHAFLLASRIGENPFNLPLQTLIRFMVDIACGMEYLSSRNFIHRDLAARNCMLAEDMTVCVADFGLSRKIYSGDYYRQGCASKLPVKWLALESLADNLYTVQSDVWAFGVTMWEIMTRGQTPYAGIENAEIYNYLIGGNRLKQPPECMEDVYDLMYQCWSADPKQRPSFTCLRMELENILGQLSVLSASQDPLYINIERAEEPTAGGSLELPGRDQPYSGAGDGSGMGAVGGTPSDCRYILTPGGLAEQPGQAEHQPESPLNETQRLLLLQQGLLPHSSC

[6] = biological target: Vascular endothelial growth factor receptor 3 (Homo sapiens, UniProt P35916); assay: Selectivity interaction (Upstate Kinase Profiler service (Millipore)) EUB0000056c FLT4; conditions: at 1 µM
Chain of Vascular endothelial growth factor receptor 3 (P35916 whole entry): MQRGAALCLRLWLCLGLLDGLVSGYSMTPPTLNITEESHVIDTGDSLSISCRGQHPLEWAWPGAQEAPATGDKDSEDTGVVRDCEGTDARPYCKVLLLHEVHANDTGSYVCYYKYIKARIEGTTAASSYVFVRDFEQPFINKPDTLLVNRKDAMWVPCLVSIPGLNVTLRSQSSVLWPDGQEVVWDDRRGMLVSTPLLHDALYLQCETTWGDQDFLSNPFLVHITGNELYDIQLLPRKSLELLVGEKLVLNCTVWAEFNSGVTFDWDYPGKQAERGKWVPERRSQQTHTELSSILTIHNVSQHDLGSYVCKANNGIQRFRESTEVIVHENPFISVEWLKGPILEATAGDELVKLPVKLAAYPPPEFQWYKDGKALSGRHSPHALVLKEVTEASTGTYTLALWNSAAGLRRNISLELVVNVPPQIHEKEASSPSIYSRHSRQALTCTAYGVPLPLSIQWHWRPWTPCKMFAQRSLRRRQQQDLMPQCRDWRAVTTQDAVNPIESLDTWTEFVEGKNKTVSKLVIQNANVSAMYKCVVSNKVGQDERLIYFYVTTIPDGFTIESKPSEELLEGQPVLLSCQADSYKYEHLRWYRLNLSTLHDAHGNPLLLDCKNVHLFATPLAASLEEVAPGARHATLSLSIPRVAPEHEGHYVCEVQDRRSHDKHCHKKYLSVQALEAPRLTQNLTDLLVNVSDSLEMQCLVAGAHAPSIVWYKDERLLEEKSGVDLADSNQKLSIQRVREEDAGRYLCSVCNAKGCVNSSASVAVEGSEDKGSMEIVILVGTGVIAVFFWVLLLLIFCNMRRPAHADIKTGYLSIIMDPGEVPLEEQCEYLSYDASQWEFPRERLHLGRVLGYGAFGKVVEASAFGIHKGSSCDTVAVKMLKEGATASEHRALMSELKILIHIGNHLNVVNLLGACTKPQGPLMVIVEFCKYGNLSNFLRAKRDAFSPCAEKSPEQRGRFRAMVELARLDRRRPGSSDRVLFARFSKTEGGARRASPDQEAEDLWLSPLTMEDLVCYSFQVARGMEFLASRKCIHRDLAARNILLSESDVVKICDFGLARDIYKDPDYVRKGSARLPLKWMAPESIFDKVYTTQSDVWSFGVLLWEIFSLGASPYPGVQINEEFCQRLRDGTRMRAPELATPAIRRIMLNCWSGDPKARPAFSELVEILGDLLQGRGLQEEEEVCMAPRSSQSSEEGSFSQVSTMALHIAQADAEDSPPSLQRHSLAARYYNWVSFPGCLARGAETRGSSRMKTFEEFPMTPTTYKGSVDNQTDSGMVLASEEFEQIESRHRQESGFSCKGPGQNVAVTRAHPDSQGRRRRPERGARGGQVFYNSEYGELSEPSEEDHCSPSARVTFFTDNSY

Chain of Mitogen-activated protein kinase 4 (Homo sapiens) (P31152 whole entry): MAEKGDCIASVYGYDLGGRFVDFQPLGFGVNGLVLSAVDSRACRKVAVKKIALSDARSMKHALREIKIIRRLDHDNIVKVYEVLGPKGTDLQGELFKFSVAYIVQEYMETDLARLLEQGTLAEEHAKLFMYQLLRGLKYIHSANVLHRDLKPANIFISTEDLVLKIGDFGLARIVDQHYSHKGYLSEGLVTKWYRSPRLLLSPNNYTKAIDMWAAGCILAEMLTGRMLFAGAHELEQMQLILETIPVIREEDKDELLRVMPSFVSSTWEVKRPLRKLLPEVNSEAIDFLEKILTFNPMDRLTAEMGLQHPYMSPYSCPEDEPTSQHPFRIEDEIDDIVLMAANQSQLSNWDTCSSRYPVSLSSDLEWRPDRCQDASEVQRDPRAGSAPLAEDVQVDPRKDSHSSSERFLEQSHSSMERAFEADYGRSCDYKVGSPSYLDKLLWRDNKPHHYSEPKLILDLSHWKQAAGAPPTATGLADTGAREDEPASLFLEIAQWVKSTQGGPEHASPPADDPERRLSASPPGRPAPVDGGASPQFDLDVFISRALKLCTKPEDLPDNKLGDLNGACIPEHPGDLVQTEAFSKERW

Cc1cc([C@@H](C)Nc2ccccc2C(=O)O)c2nc(N3CCOCC3)cc(=O)n2c1 [AZD-6482]
% of control [1]: 98%

CC[C@@H]1[C@H](F)C(=O)N[C@@H]1COc1nccc2cc(C(N)=O)c(OC)cc12 [ZIMLOVISERTIB]
% of inhibition ([2]; at 0.01 µM): 8.5%
% of inhibition ([2]; at 0.04 µM): -2.3%
% of inhibition ([2]; at 0.2 µM): -7.6%
% of inhibition ([2]; at 1 µM): 6.9%
% of inhibition ([2]; at 5 µM): -26.2%

CCC(=O)N1CC[C@H](Nc2ncnc3c2CN(c2cnc(OC)c(C(F)(F)F)c2)CC3)C1 [LENIOLISIB]
IC50 [3]: > 10 µM

Cn1cc(-n2cnc3c(NCc4nc5cc(Cl)c(Cl)cc5[nH]4)nc(N4CCOCC4)nc32)cn1
% of inhibition [4]: -8.67%

CCN(CC)CCCCNc1ncc2cc(-c3cc(OC)cc(OC)c3)c(NC(=O)NC(C)(C)C)nc2n1
% of control [5]: 100%

Cc1ccc(-c2ccc3c(ccc4sc5c(c43)NC[C@@H](C)NC5=O)n2)cn1
% of inhibition [6]: 40%
